Where no end group is shown, it is not given here.
What was measured:
[1] = target: T1, PXY extracellular domain (30–647) (Arabidopsis thaliana, UniProt Q9FII5); assay: ITC of purified PXY extracellular domain vs. CLE41/44; conditions: binding affinity (range), isolated PXY ectodomain; range joins own value (Fig EV1B) and ref 25
T1 construct: PXY/TDR (30–647); azurocidin signal peptide (N); made in house; host or cells: Spodoptera frugiperda Sf9 insect cells (baculovirus, secreted)
T1 sequence (Q9FII5 30-647): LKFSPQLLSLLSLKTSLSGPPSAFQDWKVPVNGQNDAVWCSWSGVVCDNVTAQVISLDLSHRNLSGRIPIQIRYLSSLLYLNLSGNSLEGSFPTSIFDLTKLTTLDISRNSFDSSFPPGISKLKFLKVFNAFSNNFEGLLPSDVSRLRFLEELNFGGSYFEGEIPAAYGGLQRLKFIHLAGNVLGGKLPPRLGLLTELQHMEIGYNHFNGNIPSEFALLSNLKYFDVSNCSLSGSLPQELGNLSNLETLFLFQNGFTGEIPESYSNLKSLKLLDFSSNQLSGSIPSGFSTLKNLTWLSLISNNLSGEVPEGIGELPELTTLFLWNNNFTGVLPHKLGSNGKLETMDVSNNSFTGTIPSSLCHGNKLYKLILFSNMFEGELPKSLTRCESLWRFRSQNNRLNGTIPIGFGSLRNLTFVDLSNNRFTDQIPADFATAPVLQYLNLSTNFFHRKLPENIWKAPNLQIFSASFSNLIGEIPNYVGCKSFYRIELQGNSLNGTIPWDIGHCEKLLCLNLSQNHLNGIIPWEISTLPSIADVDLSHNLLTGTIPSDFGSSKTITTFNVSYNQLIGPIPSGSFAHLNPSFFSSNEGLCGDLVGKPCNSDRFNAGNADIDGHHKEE

[2] = system: Arabidopsis Col-0 seedlings (primary root); assay: Root growth assay, wild type (Col-0); format: in vivo, Arabidopsis thaliana; conditions: 50 nM peptide, 9-day-old seedlings, primary root length, n ≥ 12
Description: Plant tissue culture, plant transformation, and common molecular biology procedures such as genomic DNA isolation, genotyping, sequencing, and peptide or inhibitor treatments were performed according to standard procedures as previously described 9, 19, 44, 65.
All mutant and transgenic lines were in the Arabidopsis Columbia‐0 (Col‐0) background. The following previously described mutant alleles were used throughout: brx‐2, bam3‐2, brx‐2 bam3, clv2‐1, serk1‐1 and serk1‐3, serk2‐1, serk3‐1, serk4‐1, serk5‐1 9, 47, 59, 66, 67, 68. The crn loss‐of‐function mutant allele (crn‐10) carries a single nucleotide insertion in front of the 7th codon, which leads to a frameshift and three subsequent premature stop codons after amino acid 10 52.

[3] = system: crn seedlings expressing CRN-CITRINE under control of the BAM3 promoter; assay: Root growth, BAM3::CRN-CITRINE in crn (protophloem-specific CRN); format: in vivo, Arabidopsis thaliana; conditions: 50 nM peptide, 7-day-old seedlings
Source text: Figure 3 Protophloem‐specific CRN action in the root meristem • A Expression pattern of BAM3, CLV2, and CRN‐CITRINE fusion proteins (green fluorescence) under control of their native promoters (blue fluorescence: calcofluor white cell wall staining) (confocal microscopy). Asterisks mark developing protophloem sieve element strands. • B, C Expression pattern of CRN‐CITRINE fusion protein under control of the BAM3 promoter in Col‐0 (B) or crn (C) background. Arrowhead in (C) highlights plasma membrane‐localized CRN. • D Representative 7‐day‐old crn seedlings expressing CRN‐CITRINE fusion protein under control of the BAM3 promoter grown on mock or CLE45. • E Primary root length of 7‐day‐old seedlings of indicated genotypes, grown on mock or 50 nM of selected CLE peptides. Differences as compared to ^a: Col‐0 or ^b: crn are not statistically significant unless indicated (Student's t‐test); *P < 0.05; **P < 0.01; ***P < 0.001; mean ± s.e.m. • F Expression of nuclear localized, fluorescent VENUS protein under control of the CVP2 promoter (which specifically marks developing protophloem sieve elements), 24 h after transfer from standard media to 50 nM of selected CLE peptides. Arrowheads indicate the cells closest to the tip in which CVP2 expression was still detectable. […]

Row | Sequence | Kd [1] | impact on root growth [2] | sensitivity after protophloem-specific CRN expression in crn [3]
1 | HEVPSGPNPISN [CLE41/44] | 10 to 30 nM | – | –
2 | RKVPRGPDPIHN [CLE26, CLE26: …] | – | significant, reproducible impact on root growth | restored sensitivity

Source: paper PMC5538625, “Perception of root‐active CLE peptides requires CORYNE function in the phloem vasculature” (EMBO Reports, 2017)
